Experimental data published in ChEMBL document CHEMBL1201862, “PubChem BioAssay data set” (2004).
Active and inactive are the calls of the source.

Tests used:
[1] = target: Beta-2 adrenergic receptor (Homo sapiens, UniProt P07550); experiment: ADRB2 activation measured by internalization – cell-based, FAP fluorogen, flow cytometry, cherry pick 1, dose response (AID 588763); assay type: functional
A-375 [2] = experiment: proliferation inhibition in MITF-low A375 cells – cell-based, cherry-pick samples, set 2, counter-screen for MITF modulator project, dose response (AID 540335); assay type: functional; conditions: Homo sapiens
[3] = target: T1, Microphthalmia-associated transcription factor (Homo sapiens, UniProt O75030); experiment: reducers of TRPM1 reporter luminescence, concentration series – cell-based, SK-MEL-5, cherry-picked, set 3, MITF inhibitor project, dose response (AID 493073); assay type: functional;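 further: SK-MEL-5 melanoma cells with luciferase driven by the MITF target TRPM1 promoter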
T1 sequence (O75030 whole entry): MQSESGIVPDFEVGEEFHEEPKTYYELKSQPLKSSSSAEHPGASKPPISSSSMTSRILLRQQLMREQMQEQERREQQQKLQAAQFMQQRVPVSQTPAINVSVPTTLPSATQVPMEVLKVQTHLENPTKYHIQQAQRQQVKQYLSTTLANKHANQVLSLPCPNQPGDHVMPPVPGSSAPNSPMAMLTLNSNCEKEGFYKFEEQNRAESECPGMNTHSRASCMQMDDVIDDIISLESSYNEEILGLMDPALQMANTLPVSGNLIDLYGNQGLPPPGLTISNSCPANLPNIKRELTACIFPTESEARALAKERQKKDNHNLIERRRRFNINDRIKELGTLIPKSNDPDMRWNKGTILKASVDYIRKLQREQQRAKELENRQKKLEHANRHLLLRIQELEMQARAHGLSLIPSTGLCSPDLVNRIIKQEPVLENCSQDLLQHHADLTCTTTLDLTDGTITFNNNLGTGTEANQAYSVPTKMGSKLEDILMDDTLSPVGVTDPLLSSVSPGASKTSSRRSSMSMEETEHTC

[4] = luciferase reporter signal suppression in cells – H4 neuroglioma cells, luminescence, dose response (AID 1990); assay type: functional, cell-based
[5] = alpha-synuclein stem-loop luciferase translation blockers – H4 neuroglioma cells, luminescence, confirmation (AID 1988); assay type: functional, cell-based
[6] = Luminescence Cell-Based Dose Response HTS to Identify Inhibitors of 5'UTR Stem-Loop Driven Prion Protein mRNA Translation in H4 Neuroglioblastoma Cells. [Related pubchem assays: 1827 (Project Summary), 1813 (Primary HTS)]; assay type: functional
A-375 [7] = experiment: MITF: Counter assay: A375 proliferation Measured in Cell-Based System Using Plate Reader - 2084-03_Inhibitor_Dose_DryPowder_Activity. [Related pubchem assays (depositor defined):AID488944]; assay type: functional; conditions: Homo sapiens
[8] = Fluorescence polarization-based biochemical high throughput dose response assay for activators of the Protein Kinase A-R2B (PKA-R2B) complex. [Related pubchem assays (depositor defined):AID504700, AID504704, AID504796, AID504797]
[9] = Fluorescence polarization-based biochemical high throughput dose response assay for activators of the Protein Kinase A-R1A (PKA-R1A) complex. [Related pubchem assays (depositor defined):AID504704, AID504707, AID504799, AID504800]
[10] = loss of viability in HepG2 cells – cell-based, CellTiter-Glo, cherry-picked, cytotoxicity control for Shn3 inhibitor project, dose response (AID 624134); assay type: functional
Paired box protein Pax-8 = Paired box protein Pax-8 (Homo sapiens, UniProt Q06710); experiment: PAX8 transcriptional activity inhibition in RMG-I – RMG-I cells, luciferase, cherry-pick, dose response (AID 687027); assay type: functional, cell-based;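 further: luciferase reporter driven by Pax8 target thyroperoxidase promoter measured by SteadyGlo luminescence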
Paired box protein Pax-8, sequence (Q06710 whole entry, the tested form may be a part): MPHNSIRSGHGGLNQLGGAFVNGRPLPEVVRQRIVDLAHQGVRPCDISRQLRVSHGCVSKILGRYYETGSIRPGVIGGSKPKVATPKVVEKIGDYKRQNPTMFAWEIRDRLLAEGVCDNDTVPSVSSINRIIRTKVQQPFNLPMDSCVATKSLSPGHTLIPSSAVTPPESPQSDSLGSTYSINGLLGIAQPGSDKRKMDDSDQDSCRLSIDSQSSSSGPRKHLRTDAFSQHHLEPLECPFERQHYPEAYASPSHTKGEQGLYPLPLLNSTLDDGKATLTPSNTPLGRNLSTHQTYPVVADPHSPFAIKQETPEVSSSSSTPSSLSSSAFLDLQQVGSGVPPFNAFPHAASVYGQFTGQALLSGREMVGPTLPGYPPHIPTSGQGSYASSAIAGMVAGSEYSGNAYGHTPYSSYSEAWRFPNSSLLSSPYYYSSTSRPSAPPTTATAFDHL

[11] = viability loss in CEM21 cells – cell-based, CellTiter-Glo luminescence, cherry-picked, cytotoxicity control for viral fusion inhibitor project, dose response (AID 652042); assay type: functional;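 further: potency for signal decrease meaning cytotoxicity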
[12] = general cell-killing toxicity readout – plate reader, dry powder samples, cytotoxicity control for PAX8 inhibitor project, dose response (AID 743021); assay type: functional, cell-based
[13] = target: Heat shock protein HSP 90-alpha (Homo sapiens, UniProt P07900); experiment: Luminescence-based dose response biochemical high throughput screening assay for inhibitors of the Heat Shock Protein 90 (HSP90). [Related pubchem assays: 1831 (Summary AID.), 1846 (Confirmation screen.), 1789 (Primary screen.)]
[14] = non-specific 3'UTR reporter inhibition in Clone20-Shn3RL – cell-based, Renilla luciferase, cherry-picked, counter-screen for Shn3 inhibitor project, dose response (AID 624133); assay type: functional
[15] = reduction of Shn3 3'UTR-driven luciferase in osteoblasts – cell-based, Clone20 osteoblasts, firefly luciferase, cherry-picked, dose response (AID 624132); assay type: functional;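 further: firefly luciferase luminescence from reporter carrying the Shn3 3'UTR in osteoblasts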
[16] = target: Luciferin 4-monooxygenase (Photuris pensylvanica, UniProt Q27757); experiment: inhibition of Cell Titer Glo luciferase signal – biochemical, luminescence, cherry-picks, counter-screen for HSF-1 reporter inhibitor project, dose response (AID 588847)
Luciferin 4-monooxygenase, sequence (Q27757 whole entry, the tested form may be a part): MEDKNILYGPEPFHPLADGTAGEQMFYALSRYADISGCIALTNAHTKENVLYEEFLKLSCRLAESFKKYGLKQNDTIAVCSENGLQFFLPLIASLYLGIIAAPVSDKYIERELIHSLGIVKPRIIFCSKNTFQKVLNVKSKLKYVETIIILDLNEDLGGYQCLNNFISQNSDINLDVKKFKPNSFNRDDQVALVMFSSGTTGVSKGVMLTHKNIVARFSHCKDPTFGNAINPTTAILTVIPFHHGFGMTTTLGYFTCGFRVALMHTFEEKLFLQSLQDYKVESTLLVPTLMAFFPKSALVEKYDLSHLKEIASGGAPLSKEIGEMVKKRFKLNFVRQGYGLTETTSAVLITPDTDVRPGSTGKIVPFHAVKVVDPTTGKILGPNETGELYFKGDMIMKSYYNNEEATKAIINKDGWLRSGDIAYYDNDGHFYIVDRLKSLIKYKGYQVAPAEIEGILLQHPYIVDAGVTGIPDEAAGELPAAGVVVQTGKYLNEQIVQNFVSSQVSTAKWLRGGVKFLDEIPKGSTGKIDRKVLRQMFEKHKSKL

[17] = HIV-1 AD8 envelope cell-cell fusion blockers – cherry-pick, dose response (AID 652062); assay type: functional, cell-based;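 further: luciferase signal from cell-cell fusion driven by HIV-1 clade B AD8 Env; potency is for inhibitors of fusion seen as a drop in luminescence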
[18] = target: T2, Heat shock factor protein 1 (Mus musculus, UniProt P38532); experiment: decrease of HSF1-responsive luciferase luminescence – cell-based, NIH3T3, dose retest, confirmation (AID 2382); assay type: functional;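 further: NIH3T3 fibroblasts with HSF1-driven luciferase reporter stressed by proteasome inhibitor MG132; luminescence from HSF1-driven luciferase expression after 8 hours of MG132 stress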
T2 sequence (P38532 whole entry): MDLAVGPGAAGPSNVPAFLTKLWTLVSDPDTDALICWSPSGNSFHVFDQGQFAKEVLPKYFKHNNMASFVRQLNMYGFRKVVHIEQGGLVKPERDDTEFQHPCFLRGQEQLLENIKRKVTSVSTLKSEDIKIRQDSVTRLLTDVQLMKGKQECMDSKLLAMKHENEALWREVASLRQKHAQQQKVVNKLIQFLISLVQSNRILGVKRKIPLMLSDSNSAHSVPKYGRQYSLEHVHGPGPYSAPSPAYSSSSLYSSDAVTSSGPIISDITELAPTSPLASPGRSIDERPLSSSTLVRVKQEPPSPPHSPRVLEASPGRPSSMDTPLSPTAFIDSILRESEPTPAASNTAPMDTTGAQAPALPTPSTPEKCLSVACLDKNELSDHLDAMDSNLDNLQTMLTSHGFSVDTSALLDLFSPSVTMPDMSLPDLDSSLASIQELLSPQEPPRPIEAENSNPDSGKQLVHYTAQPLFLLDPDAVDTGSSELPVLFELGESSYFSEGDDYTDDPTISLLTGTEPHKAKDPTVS

[19] = off-target signal loss in HeLa-CEM21 co-culture – HeLa F-luc CTL cells, cherry-picked, counter-screen for HIV-1 Env fusion inhibitor project, dose response (AID 652040); assay type: functional, cell-based;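 further: potency for signal decrease marking cytotoxic or nonspecific inhibition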
[20] = blockers of HIV-1 envelope-mediated cell-cell fusion – cherry-pick, dose response (AID 652057); assay type: functional, cell-based
[21] = blockers of HIV-1 ZM109 envelope-driven cell-cell fusion – HeLa effector, CEM target cells, luciferase, cherry-pick, dose response (AID 652058); assay type: functional, cell-based;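 further: luciferase signal from HIV-1 Env mediated cell-cell fusion of effector and target cells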
Nonstructural protein 1 = Nonstructural protein 1 (Influenza A virus, UniProt Q194T2); assay type: functional, Influenza A virus (A/California/07/2009(H1N1))
Nonstructural protein 1, sequence (Q194T2 whole entry): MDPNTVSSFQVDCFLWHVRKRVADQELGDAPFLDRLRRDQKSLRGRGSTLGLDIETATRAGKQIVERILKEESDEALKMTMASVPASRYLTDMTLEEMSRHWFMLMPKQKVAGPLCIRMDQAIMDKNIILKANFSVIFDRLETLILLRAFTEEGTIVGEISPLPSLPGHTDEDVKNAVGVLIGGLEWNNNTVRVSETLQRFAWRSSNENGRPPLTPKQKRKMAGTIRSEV

[22] = viability loss in HeLa cells – cytotoxicity control for MgcRacGAP inhibitor project, dose response (AID 624300); assay type: functional
[23] = target: 5-hydroxytryptamine receptor 5A (Homo sapiens, UniProt P47898); experiment: Counterscreen for agonists of OPRM1-OPRD1 heterodimerization: luminescence-based cell-based high throughput dose response assay to identify agonists of 5-hydroxytryptamine (serotonin) 5A receptor (HTR5A). [Related pubchem assays (depositor defined):AID504326, AID504355, AID504692, AID504904, AID504905]; assay type: functional
5-hydroxytryptamine receptor 5A, sequence (P47898 whole entry): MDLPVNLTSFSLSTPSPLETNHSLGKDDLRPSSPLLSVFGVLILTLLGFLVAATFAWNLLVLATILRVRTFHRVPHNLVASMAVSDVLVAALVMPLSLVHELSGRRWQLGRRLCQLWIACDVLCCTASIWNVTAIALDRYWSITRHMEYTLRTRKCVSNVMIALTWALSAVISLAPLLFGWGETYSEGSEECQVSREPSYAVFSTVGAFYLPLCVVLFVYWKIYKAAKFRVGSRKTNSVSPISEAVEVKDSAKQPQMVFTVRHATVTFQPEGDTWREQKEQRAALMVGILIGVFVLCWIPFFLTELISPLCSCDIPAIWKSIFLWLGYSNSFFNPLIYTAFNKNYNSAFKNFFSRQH

[24] = target: T3, Rac GTPase-activating protein 1 (Homo sapiens, UniProt Q9H0H5); experiment: blockers of MgcRacGAP-driven Rac1 GTP hydrolysis – biochemical, ADP Hunter fluorescence, primary and confirmatory, confirmation (AID 624330); assay type: functional
T3 sequence (Q9H0H5 whole entry): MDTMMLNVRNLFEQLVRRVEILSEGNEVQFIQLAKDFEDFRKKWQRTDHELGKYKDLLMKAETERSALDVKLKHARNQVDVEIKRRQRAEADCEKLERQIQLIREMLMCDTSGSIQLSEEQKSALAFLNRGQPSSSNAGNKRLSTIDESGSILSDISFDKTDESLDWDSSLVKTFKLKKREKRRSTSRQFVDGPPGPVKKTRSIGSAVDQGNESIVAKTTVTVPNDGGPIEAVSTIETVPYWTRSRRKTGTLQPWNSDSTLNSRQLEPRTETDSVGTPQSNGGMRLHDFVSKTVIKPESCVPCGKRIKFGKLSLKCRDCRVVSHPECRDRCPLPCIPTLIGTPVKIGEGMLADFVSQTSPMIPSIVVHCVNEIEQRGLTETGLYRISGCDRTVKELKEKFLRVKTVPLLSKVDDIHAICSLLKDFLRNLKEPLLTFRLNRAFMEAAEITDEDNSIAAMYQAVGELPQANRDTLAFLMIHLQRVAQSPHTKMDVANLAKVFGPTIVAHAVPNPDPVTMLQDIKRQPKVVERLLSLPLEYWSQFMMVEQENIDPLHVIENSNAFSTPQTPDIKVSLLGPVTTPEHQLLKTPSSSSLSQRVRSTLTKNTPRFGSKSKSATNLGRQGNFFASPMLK

Mu-type opioid receptor = Mu-type opioid receptor (Homo sapiens, UniProt P35372); experiment: (§1) Counterscreen for agonists of heterodimerization of the mu 1 (OPRM1) and delta 1 (OPRD1) opioid receptors: Luminescence-based cell-based high throughput dose response assay to identify agonists of OPRM1 homodimerization.; assay type: functional
Mu-type opioid receptor, sequence (P35372 whole entry): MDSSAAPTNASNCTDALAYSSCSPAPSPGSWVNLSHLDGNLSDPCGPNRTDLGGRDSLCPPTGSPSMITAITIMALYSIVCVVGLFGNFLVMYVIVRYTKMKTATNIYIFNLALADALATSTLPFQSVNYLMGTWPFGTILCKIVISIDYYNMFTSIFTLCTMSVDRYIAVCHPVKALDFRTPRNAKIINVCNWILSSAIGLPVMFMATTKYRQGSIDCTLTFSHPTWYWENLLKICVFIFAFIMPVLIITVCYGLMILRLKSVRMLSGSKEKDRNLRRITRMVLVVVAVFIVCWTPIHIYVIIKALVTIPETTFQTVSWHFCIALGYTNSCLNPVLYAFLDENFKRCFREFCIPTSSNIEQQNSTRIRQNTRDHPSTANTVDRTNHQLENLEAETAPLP

[25] = target: Glutathione-S-transferase (Schistosoma japonicum, UniProt Q26513); experiment: GST-antibody interaction or FRET quenching – biochemical, TR-FRET, artefact control for Vif-APOBEC3G degradation inhibitor project, dose response (AID 1117362); assay type: functional
Glutathione-S-transferase, sequence (Q26513 whole entry): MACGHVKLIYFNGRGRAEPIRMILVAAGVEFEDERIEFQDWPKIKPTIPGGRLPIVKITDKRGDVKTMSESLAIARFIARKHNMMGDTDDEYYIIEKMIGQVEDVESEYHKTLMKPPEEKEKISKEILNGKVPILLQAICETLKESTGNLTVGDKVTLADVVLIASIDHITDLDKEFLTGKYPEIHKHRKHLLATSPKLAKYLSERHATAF

[26] = viability loss in THP-1 monocytes – THP-1 cells, cytotoxicity control for Vif-APOBEC3G degradation inhibitor project, dose response (AID 1117359); assay type: functional; conditions: THP-1
[27] = target: Delta-type opioid receptor (Homo sapiens, UniProt P41143); experiment: as §1, with “of OPRD1” for “of OPRM1”, “homodimerization. [Related pubchem assays (depositor defined):AID504326, AID504355, AID504692, AID504904, AID504905]” for “homodimerization.”; assay type: functional
Delta-type opioid receptor, sequence (P41143 whole entry): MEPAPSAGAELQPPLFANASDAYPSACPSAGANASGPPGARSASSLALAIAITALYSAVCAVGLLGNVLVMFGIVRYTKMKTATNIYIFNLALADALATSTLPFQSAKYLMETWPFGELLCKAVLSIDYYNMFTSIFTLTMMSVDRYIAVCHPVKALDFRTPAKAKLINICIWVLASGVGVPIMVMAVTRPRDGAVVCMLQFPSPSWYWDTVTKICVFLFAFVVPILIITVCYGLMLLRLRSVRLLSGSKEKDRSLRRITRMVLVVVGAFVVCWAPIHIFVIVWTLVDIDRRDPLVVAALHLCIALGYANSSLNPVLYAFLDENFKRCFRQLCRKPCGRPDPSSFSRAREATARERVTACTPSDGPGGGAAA

HEK293 = experiment: HEK293T cell viability loss, resazurin readout – resazurin fluorescence, cytotoxicity control for NF-kB activator project, SAR follow-up (AID 493251); assay type: functional, cell-based; conditions: Homo sapiens
[28] = target: Dual specificity protein phosphatase 3 (Homo sapiens, UniProt P51452); experiment: SAR VHR1 Fluorescent Assay for In Vitro dose response studies Set 3. [Related pubchem assays (depositor defined):AID1654, AID1661, AID1878]; assay type: functional
Dual specificity protein phosphatase 3, sequence (P51452 whole entry): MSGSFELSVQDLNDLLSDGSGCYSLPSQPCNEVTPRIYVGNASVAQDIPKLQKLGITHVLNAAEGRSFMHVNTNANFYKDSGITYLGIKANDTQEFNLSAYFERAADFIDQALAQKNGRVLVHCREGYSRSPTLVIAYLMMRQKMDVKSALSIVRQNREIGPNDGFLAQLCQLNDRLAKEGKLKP

Beta-2 adrenergic receptor, sequence (P07550 whole entry): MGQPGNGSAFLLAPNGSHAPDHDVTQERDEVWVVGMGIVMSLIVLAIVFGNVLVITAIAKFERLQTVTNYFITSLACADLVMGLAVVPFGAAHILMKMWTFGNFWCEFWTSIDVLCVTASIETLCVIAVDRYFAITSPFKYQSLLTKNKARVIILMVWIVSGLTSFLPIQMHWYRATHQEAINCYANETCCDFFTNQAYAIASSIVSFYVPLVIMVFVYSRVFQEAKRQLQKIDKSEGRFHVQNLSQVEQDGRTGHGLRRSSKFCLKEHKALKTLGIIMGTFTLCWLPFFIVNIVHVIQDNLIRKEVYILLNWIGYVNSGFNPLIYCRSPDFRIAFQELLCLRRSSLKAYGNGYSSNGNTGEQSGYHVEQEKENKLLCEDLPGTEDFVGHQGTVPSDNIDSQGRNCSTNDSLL

CC1=C(C(=O)Nc2ccc(C(=O)N3CCN(c4ccccc4F)CC3)cc2)SCCO1
EC50 [1]: 3.01 µM (active)

O=C(O)c1ccccc1C(=O)Nc1ccc(Oc2cccc3ccccc23)cc1
AC50 (A-375 [2]): > 35 µM (active) | AC50 [3]: 18.8 µM (active) | EC50 [4]: 6.38 µM (active) | EC50 [5]: 10.4 µM (active) | EC50 [6]: 12.7 µM (active) | AC50 (A-375 [7]): > 35 µM (active)

CCCC(=O)Nc1ncnc2c1ncn2[C@@H]1O[C@@H]2OP(=O)(O)OC[C@H]2[C@H]1OC(=O)CCC
EC50 [8]: 9.1 µM (active) | EC50 [9]: 6.7 µM (active)

CC1CCN(c2ccc(-c3cccc(NC(=O)C(F)(F)F)c3)nn2)CC1
AC50 [10]: 44.1 µM (active) | AC50 (Paired box protein Pax-8): 3.37 µM (active) | AC50 [11]: 32.2 µM (active) | AC50 [12]: 32 µM (active) | IC50 [13]: 8.01 µM (active) | EC50 [4]: 5.09 µM (inconclusive) | AC50 [14]: 3.1 µM (active) | AC50 [15]: 2.74 µM (active) | AC50 [16]: 29.2 µM (active) | AC50 [17]: 11.5 µM (active) | EC50 [18]: < 0.16 µM (active) | EC50 [5]: 0.475 µM (inconclusive) | AC50 [19]: 4.11 µM (active) | AC50 [20]: 2.55 µM (active) | AC50 [21]: 36.5 µM (active) | EC50 [6]: 8.19 µM (active)

CCN(CC)Cc1cc(Nc2c3ccccc3nc3c4ccccc4n(C)c23)cc(CN(CC)CC)c1O
IC50 (Nonstructural protein 1): 17.9 µM (active) | CC50 [22]: 80 µM (active) | EC50 [23]: > 92.6 µM (inactive) | IC50 [24]: 22.1 µM (active) | EC50 (Mu-type opioid receptor): > 92.6 µM (inactive) | IC50 [25]: 59.5 µM (active) | CC50 [26]: 11 µM (active) | EC50 [27]: 1.49 µM (active)

Cc1oc(-c2ccccc2)nc1CSCC(=O)NC1CC1
IC50 (HEK293): > 80 µM (inactive)

Cc1cc(NC(=O)c2ccccc2Cl)ccc1NC(=O)CSc1nnc(-c2cccs2)n1C
IC50 [28]: 25.3 µM (active)
